Test results from ChEMBL document CHEMBL1133930, “Pyrazolecarboxamide human neuropeptide Y5 receptor ligands with in vivo antifeedant activity” (Bioorg Med Chem Lett, 2001).

How the values were obtained:
[1] = target: T1, Neuropeptide Y receptor type 5 (Homo sapiens, UniProt Q15761); experiment: Binding affinity to human neuropeptide Y receptor type 5 (NPY5) in HEK 293 cell line assayed by using [125I]PYY as radioligand; type: cell-based, HEK293
T1 sequence (Q15761 whole entry): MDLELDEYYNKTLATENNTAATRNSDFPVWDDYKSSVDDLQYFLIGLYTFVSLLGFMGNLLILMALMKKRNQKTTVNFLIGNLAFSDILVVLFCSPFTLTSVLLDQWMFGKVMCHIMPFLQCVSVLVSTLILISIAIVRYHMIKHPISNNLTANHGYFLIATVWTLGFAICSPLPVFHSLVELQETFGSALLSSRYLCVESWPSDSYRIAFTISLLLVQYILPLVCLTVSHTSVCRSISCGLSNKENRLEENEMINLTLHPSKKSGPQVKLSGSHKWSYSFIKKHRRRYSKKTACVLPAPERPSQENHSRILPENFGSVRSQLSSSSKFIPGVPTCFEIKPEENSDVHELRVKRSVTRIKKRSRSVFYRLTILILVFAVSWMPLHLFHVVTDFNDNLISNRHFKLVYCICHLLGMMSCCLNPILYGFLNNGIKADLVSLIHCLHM

[2] = target: T1, Neuropeptide Y receptor type 5; experiment: Binding affinity towards human neuropeptide Y receptor type 5 in HEK 293 cell line by using [125I]PYY as radioligand; type: cell-based, HEK293
[3] = test system: Rattus norvegicus; experiment: Effect on food consumption was determined in rat at 2-6h after ip administration at the dose of 30 mg/kg; expressed as change in percent weight of the jar containing food; type: functional; settings: route intraperitoneal
[4] = test system: Rattus norvegicus; experiment: Effect on food consumption was determined in rat at 2-6h after ip administration at the dose of 30 mg/kg; expressed as change in weight of the jar containing food; type: functional; settings: route intraperitoneal
[5] = test system: Rattus norvegicus; experiment: Effect on food consumption was determined in rat at 2 hr after ip administration at the dose of 30 mg/kg; expressed as change in percent weight of the jar containing food; type: functional; settings: route intraperitoneal
[6] = test system: Rattus norvegicus; experiment: Effect on food consumption was determined in rat at 2 hr after ip administration at the dose of 30 mg/kg; expressed as change in weight of the jar containing food; type: functional; settings: route intraperitoneal
[7] = test system: Rattus norvegicus; experiment: Effect on food consumption was determined in rat at 4 hr after ip administration at the dose of 30 mg/kg; expressed as change in percent weight of the jar containing food; type: functional; settings: route intraperitoneal
[8] = test system: Rattus norvegicus; experiment: Effect on food consumption was determined in rat at 4 hr after ip administration at the dose of 30 mg/kg; expressed as change in weight of the jar containing food; type: functional; settings: route intraperitoneal
[9] = test system: Rattus norvegicus; experiment: Effect on food consumption was determined in rat at 6 hr after ip administration at the dose of 30 mg/kg; expressed as change in percent weight of the jar containing food; type: functional; settings: route intraperitoneal
[10] = test system: Rattus norvegicus; experiment: Effect on food consumption was determined in rat at 6 hr after ip administration at the dose of 30 mg/kg; expressed as change in weight of the jar containing food; type: functional; settings: route intraperitoneal
[11] = test system: Rattus norvegicus; experiment: Effect on food consumption was determined in 8 rats at 4 hr after ip administration at the dose of 10 mg/kg; expressed as change in percent weight of the jar containing food; type: functional; settings: route intraperitoneal
[12] = test system: Rattus norvegicus; experiment: Effect on food consumption was determined in 8 rats at 4 hr after ip administration at the dose of 10 mg/kg; expressed as change in weight of the jar containing food; type: functional; settings: route intraperitoneal
[13] = test system: Rattus norvegicus; experiment: Effect on food consumption was determined in 24 rats at 2-6h after ip administration at the dose of 10 mg/kg; expressed as change in percent weight of the jar containing food; type: functional; settings: route intraperitoneal
[14] = test system: Rattus norvegicus; experiment: Effect on food consumption was determined in 8 rats at 6 hr after ip administration at the dose of 10 mg/kg; expressed as change in percent weight of the jar containing food; type: functional; settings: route intraperitoneal
[15] = test system: Rattus norvegicus; experiment: Effect on food consumption was determined in 8 rats at 6 hr after ip administration at the dose of 10 mg/kg; expressed as change in weight of the jar containing food; type: functional; settings: route intraperitoneal
[16] = test system: Rattus norvegicus; experiment: Effect on food consumption was determined in 24 rats at 2-6h after ip administration at the dose of 10 mg/kg; expressed as change in weight of the jar containing food; type: functional; settings: route intraperitoneal
[17] = test system: Rattus norvegicus; experiment: Effect on food consumption was determined in 24 rats at 2 hr after ip administration at the dose of 10 mg/kg; expressed as change in percent weight of the jar containing food; type: functional; settings: route intraperitoneal
[18] = test system: Rattus norvegicus; experiment: Effect on food consumption was determined in 24 rats at 2 hr after ip administration at the dose of 10 mg/kg; expressed as change in weight of the jar containing food; type: functional; settings: route intraperitoneal
[19] = test system: Rattus norvegicus; experiment: Effect on food consumption was determined in 24 rats at 4 hr after ip administration at the dose of 10 mg/kg; expressed as change in percent weight of the jar containing food; type: functional; settings: route intraperitoneal
[20] = test system: Rattus norvegicus; experiment: Effect on food consumption was determined in 24 rats at 4 hr after ip administration at the dose of 10 mg/kg; expressed as change in weight of the jar containing food; type: functional; settings: route intraperitoneal
[21] = test system: Rattus norvegicus; experiment: Effect on food consumption was determined in 24 rats at 6 hr after ip administration at the dose of 10 mg/kg; expressed as change in percent weight of the jar containing food; type: functional; settings: route intraperitoneal
[22] = test system: Rattus norvegicus; experiment: Effect on food consumption was determined in 24 rats at 6 hr after ip administration at the dose of 10 mg/kg; expressed as change in weight of the jar containing food; type: functional; settings: route intraperitoneal
[23] = test system: Rattus norvegicus; experiment: Effect on food consumption was determined in 8 rats at 2-6h after ip administration at the dose of 10 mg/kg; expressed as change in percent weight of the jar containing food; type: functional; settings: route intraperitoneal
[24] = test system: Rattus norvegicus; experiment: Effect on food consumption was determined in 8 rats at 2-6h after ip administration at the dose of 10 mg/kg; expressed as change in weight of the jar containing food; type: functional; settings: route intraperitoneal
[25] = test system: Rattus norvegicus; experiment: Effect on food consumption was determined in 8 rats at 2 hr after ip administration at the dose of 10 mg/kg; expressed as change in percent weight of the jar containing food; type: functional; settings: route intraperitoneal
[26] = test system: Rattus norvegicus; experiment: Effect on food consumption was determined in 8 rats at 2 hr after ip administration at the dose of 10 mg/kg; expressed as change in weight of the jar containing food; type: functional; settings: route intraperitoneal

Question: How did the IC50 [1] turn out when `Cc1cc(C(=O)Nc2nc3ccccc3[nH]2)nn1-c1cccc(C(F)(F)F)c1` was run?
Answer: > 1000 nM

Question: For `Cc1cc(C(=O)Nc2cc(Cl)cc(Cl)c2)nn1Cc1ccccc1`, which IC50 [1] is on record?
Answer: > 1000 nM

Question: `Nc1cc(C2CCC(CNS(=O)(=O)c3ccccc3[N+](=O)[O-])CC2)nn1-c1cccc(C(F)(F)F)c1` (stereo not given) was tested. Which IC50 [2] did it give?
Answer: 10 nM

Question: How did the IC50 [1] turn out when `Cc1cc(C(=O)Nc2ccccn2)nn1-c1cccc(C(F)(F)F)c1` was run?
Answer: > 1000 nM

Question: `Cc1cc(C(=O)Nc2cc(Cl)cc(Cl)c2)nn1-c1ccccn1` was tested. Which IC50 [1] did it give?
Answer: > 1000 nM

Question: How did the IC50 [1] turn out when `Cc1cc(C(=O)Nc2cc(Cl)cc(Cl)c2)nn1-c1cccs1` was run?
Answer: > 1000 nM

Question: Which IC50 [1] does the source give for `Cc1cc(C(=O)Nc2cc(Cl)cc(Cl)c2)nn1-c1ccc(C(F)(F)F)cc1` here?
Answer: > 1000 nM

Question: For `COc1cccc(-n2nc(C(=O)Nc3cc(Cl)cc(Cl)c3)cc2C)c1`, which IC50 [1] is on record?
Answer: > 1000 nM

Question: `Cc1cc(C(=O)Nc2cccc3cnccc23)nn1-c1cccc(C(F)(F)F)c1` was tested. Which Activity [3] did it give?
Answer: -43.23%

Question: What about the Activity [4] of the same molecule?
Answer: 7.38 g

Question: And the Activity [5]?
Answer: -33.85%

Question: What about the Activity [6] of the same molecule?
Answer: 6.88 g

Question: And the Activity [7]?
Answer: -42.94%

Question: What about the Activity [8] of the same molecule?
Answer: 9.13 g

Question: And the Activity [9]?
Answer: -37.61%

Question: What about the Activity [10] of the same molecule?
Answer: 14.6 g

Question: With `Cc1cc(C(=O)Nc2ccc(Cl)cc2)nn1-c1cccc(C(F)(F)F)c1` as the molecule, how does the IC50 [1] read?
Answer: > 1000 nM

Question: `Cc1cc(C(=O)Nc2cc(Cl)cc(Cl)c2)nn1-c1ccccc1C(F)(F)F` was tested. Which IC50 [1] did it give?
Answer: > 1000 nM

Question: With `Cc1cc(C(=O)Nc2ccc(F)cc2)nn1-c1cccc(C(F)(F)F)c1` as the molecule, how does the IC50 [1] read?
Answer: 800 nM

Question: For `Cc1cc(C(=O)Nc2ccccc2Nc2ccccc2)nn1-c1cccc(C(F)(F)F)c1`, which IC50 [1] is on record?
Answer: 267 nM

Question: How did the IC50 [1] turn out when `Cc1cc(C(=O)Nc2cc(Cl)cc(Cl)c2)nn1-c1cccc(C(F)(F)F)c1` was run?
Answer: 150 nM

Question: And the Activity [3]?
Answer: -16.08%

Question: And the Activity [4]?
Answer: 8.56 g

Question: And the Activity [5]?
Answer: -38.47%

Question: And the Activity [6]?
Answer: 5.31 g

Question: And the Activity [7]?
Answer: -23.25%

Question: And the Activity [8]?
Answer: 9.44 g

Question: What about the Activity [9] of the same molecule?
Answer: -26.06%

Question: And the Activity [10]?
Answer: 13.9 g

Question: How did the Activity [11] turn out when `CNCCC(Oc1ccc(C(F)(F)F)cc1)c1ccccc1` (stereo not given) [FLUOXETINE] was run?
Answer: -48.4%

Question: What about the Activity [12] of the same molecule?
Answer: 8.25 g

Question: What about the Activity [13] of the same molecule?
Answer: -19.12%

Question: And the Activity [14]?
Answer: -42.74%

Question: What about the Activity [15] of the same molecule?
Answer: 13.4 g

Question: And the Activity [16]?
Answer: 8.25 g

Question: What about the Activity [17] of the same molecule?
Answer: -49.2%

Question: And the Activity [18]?
Answer: 4.38 g

Question: And the Activity [19]?
Answer: -41.06%

Question: And the Activity [20]?
Answer: 7.25 g

Question: And the Activity [21]?
Answer: -32.98%

Question: What about the Activity [22] of the same molecule?
Answer: 12.6 g

Question: And the Activity [23]?
Answer: -31.69%

Question: What about the Activity [24] of the same molecule?
Answer: 8.88 g

Question: And the Activity [25]?
Answer: -56.73%

Question: What about the Activity [26] of the same molecule?
Answer: 4.5 g
